Measured values reported in PubChem BioAssay (NCI).
Where “and” joins values, the source holds several entries; their conditions need not be identical. Identical values can stand only once.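 How tested: cells in 96-well plates exposed to compound for 48 hours at five concentrations. GI50 marks 50% less growth. TGI: total growth inhibition.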

How the values were obtained:
Assay in all cases: DTP human tumour cell line panel, 48 h
DMS 114 small cell lung = tested on: DMS 114 small cell lung
DU-145 prostate = tested on: DU-145 prostate
KM12 colon = tested on: KM12 colon
MOLT-4 leukemia = tested on: MOLT-4 leukemia
OVCAR-3 ovarian = tested on: OVCAR-3 ovarian
SF-268 CNS = tested on: SF-268 CNS
SK-MEL-2 melanoma = tested on: SK-MEL-2 melanoma
SNB-78 CNS = tested on: SNB-78 CNS
SW-620 colon = tested on: SW-620 colon
UACC-62 melanoma = tested on: UACC-62 melanoma

| Structure (SMILES) | TGI (DMS 114 small cell lung) | TGI (DU-145 prostate) | TGI (KM12 colon) | TGI (MOLT-4 leukemia) | TGI (OVCAR-3 ovarian) | TGI (SF-268 CNS) | TGI (SK-MEL-2 melanoma) | TGI (SNB-78 CNS) | TGI (SW-620 colon) | TGI (UACC-62 melanoma) | GI50 (DU-145 prostate) | GI50 (MOLT-4 leukemia) | GI50 (OVCAR-3 ovarian) | GI50 (SF-268 CNS) | GI50 (SK-MEL-2 melanoma) | GI50 (SW-620 colon) | GI50 (DMS 114 small cell lung) | GI50 (KM12 colon) | GI50 (SNB-78 CNS) | GI50 (UACC-62 melanoma) |
| --- | --- | --- | --- | --- | --- | --- | --- | --- | --- | --- | --- | --- | --- | --- | --- | --- | --- | --- | --- | --- |
| Cc1ccc(C(=O)N2CCN(C(=O)c3ccc(C)cc3)c3ccccc32)cc1 | 18 µM | > 100 µM | > 100 µM | > 46.4 µM | 10.6 µM | > 100 µM | > 39.6 µM | > 100 µM | > 100 µM | > 100 µM |  |  |  |  |  |  |  |  |  |  |
| CC(=O)OC1CC[C@@]2(C)C(CC[C@]3(C)C2CC=C2[C@@H]4CC(C)(C)CCC4(C)CCC23C)[C@@]1(C)C(=O)O (stereo not given in full) | 40.2 µM | 46 µM | 52.3 µM | 47.3 µM | 37.7 µM | 46.7 µM | 38.6 µM | 48.8 µM | 40.8 µM | 36.6 µM |  |  |  |  |  |  |  |  |  |  |
| Clc1cccc(N2CCN(CCN3CCc4c([nH]c5ccccc45)C3c3cccnc3)CC2)c1 (stereo not given) | > 100 µM | > 31.6 µM | > 100 µM | > 100 µM | > 100 µM | > 100 µM | > 100 µM | > 100 µM | > 100 µM | > 100 µM |  |  |  |  |  |  |  |  |  |  |
| OC(C1CO1)C(O)C1CO1 (stereo not given) | 150 µM | 109 µM and 154 µM | 112 µM and 254 µM | 103 µM and 239 µM | 98.7 µM and 286 µM | 114 µM and 513 µM | 116 µM and 345 µM | 150 µM | 150 µM and 458 µM | 72.1 µM and 130 µM | 6.7 µM | 1.95 µM | 101 µM | 27.4 µM and 27.5 µM | 137 µM | 52.4 µM and 93 µM |  |  |  |  |
| CCOC(=O)NC1=C(N2CC2)C(=O)C(NC(=O)OCC)=C(N2CC2)C1=O | 7.85 µM and 7.33 µM | 25 µM | 25 µM and 35.3 µM | 12.6 µM and 11 µM | 17.4 µM and 12.9 µM and 16.1 µM | 25 µM and 20.7 µM and 26.9 µM | 15.2 µM and 14.4 µM and 16.1 µM | 24.2 µM and 28.5 µM | 24.6 µM and 26.1 µM and 19.2 µM | 12 µM and 4.37 µM and 1.74 µM |  | 3.25 µM | 5.91 µM and 5.8 µM | 5.55 µM and 4.88 µM | 5.09 µM and 7.71 µM | 5.99 µM and 5.69 µM | 3.49 µM | 16.7 µM | 9.36 µM | 1.75 µM |
| CC(C)[NH-].CC(C)[NH-].O.O.[Cl][Pt+2][Cl] | 44.1 µM | 332 µM | 251 µM | 132 µM | 59.1 µM | 231 µM | 91.6 µM | 375 µM | 137 µM | 128 µM | 38.7 µM | 10.2 µM | 21.1 µM | 38.1 µM | 19 µM | 23.1 µM | 10.9 µM | 96.1 µM | 54.5 µM | 26.7 µM |
